Reference: ChEMBL document CHEMBL4814018, “Rationally designed TNF-α inhibitors: Identification of promising cytotoxic agents” (Bioorg Med Chem Lett, 2021)
Active and inactive are the calls of the source. No cut-off for these calls is given here.

Columns and labels:
[1] = Therapeutic index, ratio of LC50 for human Panel NCI-60 (60 carcinoma cell lines) to GI50 for human Panel NCI-60 (60 carcinoma cell lines); assay type: functional
BV-2 [2] = experiment: Cytotoxicity against mouse BV2 cells incubated for 48 hrs by MTT assay; assay type: cell-based; conditions: BV-2, 48 h
BV-2 [3] = experiment: Antiinflammatory activity against mouse BV2 cells assessed as decrease in LPS-induced NO production at 1 to 5 uM pretreated with compound followed by LPS stimulation incubated for 4 to 48 hrs by enzyme immunoassay; assay type: functional, cell-based; conditions: dose 1-5 µM, time 4-48 hrs
BV-2 [4] = experiment: Antiinflammatory activity against mouse BV2 cells assessed as reduction in LPS-induced IL6 production at 1 uM by enzyme immunoassay; assay type: functional, cell-based
RPMI-8226 = experiment: Growth inhibition of human RPMI8226 cells at 10 uM incubated for 48 hrs by sulforhodamine B assay relative to control; assay type: functional; conditions: read-out: GI
CAKI-1 = experiment: Growth inhibition of human CAKI-1 cells at 10 uM incubated for 48 hrs by sulforhodamine B assay relative to control; assay type: functional; conditions: read-out: GI
K562 = experiment: Growth inhibition of human K562 cells at 10 uM incubated for 48 hrs by sulforhodamine B assay relative to control; assay type: functional; conditions: read-out: GI
SW-620 = experiment: Growth inhibition of human SW-620 cells at 10 uM incubated for 48 hrs by sulforhodamine B assay relative to control; assay type: functional; conditions: read-out: GI
SR = experiment: Growth inhibition of human SR cells at 10 uM incubated for 48 hrs by sulforhodamine B assay relative to control; assay type: functional; conditions: read-out: GI
MDA-MB-231 = experiment: Growth inhibition of human MDA-MB-231 cells at 10 uM incubated for 48 hrs by sulforhodamine B assay relative to control; assay type: functional; conditions: read-out: GI
MCF7 = experiment: Growth inhibition of human MCF7 cells at 10 uM incubated for 48 hrs by sulforhodamine B assay relative to control; assay type: functional; conditions: read-out: GI
BV-2 [5] = experiment: Antiinflammatory activity against mouse BV2 cells assessed as inhibition of LPS-induced TNFalpha production at 1 uM by enzyme immunoassay; assay type: functional
OVCAR-3 = experiment: Growth inhibition of human OVCAR-3 cells at 10 uM incubated for 48 hrs by sulforhodamine B assay relative to control; assay type: functional; conditions: read-out: GI
HCT-116 = experiment: Growth inhibition of human HCT-116 cells at 10 uM incubated for 48 hrs by sulforhodamine B assay relative to control; assay type: functional; conditions: read-out: GI

SMILES	TI [1]	IC50 (BV-2 [2]) [µM]	Activity (BV-2 [3])	Activity (BV-2 [4])	inhibition of growth at 10 µM (RPMI-8226) [%]	inhibition of growth at 10 µM (CAKI-1) [%]	inhibition of growth at 10 µM (K562) [%]	inhibition of growth at 10 µM (SW-620) [%]	inhibition of growth at 10 µM (SR) [%]	inhibition of growth at 10 µM (MDA-MB-231) [%]	inhibition of growth at 10 µM (MCF7) [%]	Activity (BV-2 [5])	inhibition of growth at 10 µM (OVCAR-3) [%]	inhibition of growth at 10 µM (HCT-116) [%]
COc1cccc2c1C(=O)c1c(O)c3c(c(O)c1C2=O)C[C@@](O)(C(=O)CO)C[C@@H]3O[C@H]1C[C@H](N)[C@H](O)[C@H](C)O1 [DOXORUBICIN]	134													
O=C1COCCN1c1ccc(N2C(=O)C(Cl)C2c2cn(Cc3ccc(F)cc3)c3ccccc23)cc1 (stereo not given)		> 10												
Cc1ccc(S(=O)(=O)n2cc(C3C(Cl)C(=O)N3c3ccc(N4CCOCC4=O)cc3)c3ccccc32)cc1 (stereo not given)		> 10	Active	Active	78	75	77	74	75	83	80	Active	70	83
